Data published in patent US5439891A (priority 1993, dated 1995).

Legend:
[1] = in vivo
[2] = cited from earlier work
[3] = format: in vivo; conditions: rats; in combination with piperine

SMILES | bioavailability of the drugs in blood [1] | solubility in organic solvents ([2]; benzene, chlorform, ether, ethyl acetate, dichloromethane, alcohol, acetic acid) | solubility in pet. ether ([2]; pet. ether) | solubility in water ([2]; water) | AUC compared to drugs without piperine in equivalent doses [3] | plasma levels [3] | bioavailability in combination with piperine [1]
O=C(/C=C/C=C/c1ccc2c(c1)OCO2)N1CCCCC1 [Piperine, (E, E) 1-[5-(1,3-benzodioxyl-5-yl)-1-oxo-2,4-pentadenyl] piperidine] | increase in the bioavailability | soluble | insoluble | insoluble | – | – | –
NNC(=O)c1ccncc1 [isoniazid] | – | – | – | – | very high AUC | significant increase | –
NC(=O)c1cnccn1 [pyrazinamide] | – | – | – | – | very high AUC | significant increase | –
CO[C@H]1/C=C/O[C@@]2(C)Oc3c(C)c(O)c4c(O)c(c(/C=N/N5CCN(C)CC5)c(O)c4c3C2=O)NC(=O)/C(C)=C\C=C\[C@H](C)[C@H](O)[C@@H](C)[C@@H](O)[C@@H](C)[C@H](OC(C)=O)[C@@H]1C [rifampicin] | – | – | – | – | very high AUC | significant increase | significantly increasing the bioavailability
